Laboratory results: patent publication US7554012B2, “Plants and plant cells exhibiting resistance to AMPA, and methods for making the same” (priority 1998, dated 2009)
Read-outs that look alike come from different tables or passages of the source.

How the values were obtained:
purified PhnO protein = biological target: T1, purified PhnO protein (Escherichia coli, UniProt P16691, P2A); test: AMPA transacylase acyl-CoA acyl donor specificity, HPLC; assay type: biochemical, E. coli; conditions: for [^14C]-AMPA % Conversion: 5 minutes 30° C.; for % Activity: 1 mM acetyl-CoA = 100% reference
T1 construct: made in house; host or cells: E. coli JM101 carrying pMON15032 (recA promoter, nalidixic acid induction)
Method: PhnO was purified from a one liter Luria Bertani broth culture of E. coli JM101 expressing a recombinant phnO gene from pMON15032 after nalidixic acid induction for three hours at 37° C. Cells were harvested by centrifugation and resuspended in 40 ml cold Tris buffer (0.1 M Tris-HCl pH 8) and placed on ice. The cell suspension was brought to 1 mM DTT and 0.5 mM PMSF. The suspension was lysed by 2 passages through a prechilled French pressure cell at 1,100 psi, centrifuged at 12,000 g (10,000 rpm in an Sorvall SA600 rotor) for 40 min at 4° C., then placed on ice. The cleared supernatants were poured into fresh 15 ml polypropylene tubes. The samples were split again into two equal portions and maintained at −80° C. until used further for purification of PhnO protein. 20 microliters of the soluble fraction was assayed for enzyme activity using the HPLC method described above in Example 2, except after terminating the assay with acid addition, the sample was stored at −80° C. A Sephacryl S200 column was prepared according to the manufacturers' instructions and equilibrated with a solution containing 20 mM Tris pH 8.0 and 0.5 mM MgCl2. The entire total soluble extract was layered over the top of the column bed after thawing on ice. Forty 9 ml fractions were collected from the column eluate, and thirty microliters of each fraction was analyzed by western blot using anti-PhnO antiserum after resolution on a 15% SDS-PAGE gel. Also, thirty microliters of each fraction was analyzed for AMPA acyl transferase activity using the method described in Example 2. […] These were represented by fractions 7 through 19 in this example, and were combined into a 100 ml volume, distributed into […] each containing 10 ml volumes, and stored at −80° C. for further use.
Anion exchange chromatography was used to determine the elution pattern of PhnO away from other contaminating proteins that co-elute during the Sephacryl S200 fractionation. One tube from the combined PhnO positive fractions was thawed on ice and injected into a 5/5 Mono-Q column pre-equilibrated with buffers A (one liter of 20 mM Tris-HCl pH 8.0 Mili-Q distilled deionized water) and B (one liter of 20 mM Tris-HCl pH 8.0, 1 M NaCl). The sample containing PhnO active protein was injected into the column and one milliliter fractions were collected. The column was washed for five minutes with a flow rate of 1.8 ml per minute Buffer A after loading the PhnO containing sample. At five minutes, Buffer B was added to the flow volume at 0.5 ml per minute for four minutes. Buffer B was ramped up to 22% of the flow volume at 10 minutes, 30% at 12 minutes, 36% at 13 minutes, 41% at 14 minutes, 46% at 15 minutes, 74% at 16 minutes, and 100% at 16 minutes through 22 minutes, at which point Buffer B flow was terminated and Buffer A was reinitiated at 100% to equilibrate the column. Ten microliter volumes from individual fractions collected from the Mono-Q column were analyzed by western blot and for transacylase activity as described in Example 2. […] Samples of this purified PhnO protein were used to determine enzyme's acyl donor substrate specificity.
Enzyme reactions were prepared as follows. […] A assay premix was prepared from which 45 microliters was used in each 100 microliter reaction. This 45 microliter premix sample consisted of 40 microliters distilled and deionized water, 2 microliters of 50 mM MgCl2, and 3 microliters of 1.3 mM [^14C]-AMPA (115,392 dpm per microliter). Reactions were initiated by mixing 40 microliters of 125 mM Tris-HCl pH 8.0, […] protein sample and 10 microliters acyl-CoA acyl donor compound in a microcentrifuge tube at room temperature. Each acyl-CoA acyl donor compound was prepared as a stock solution of 1 mM, 5 mM or 10 mM stocks. Each tube was then mixed with 45 microliters of the assay premix containing the [^14C]-AMPA […] substrate, mixed gently and transferred to a 30° C. water bath for 5 minutes. […]

PhnO enzyme = PhnO enzyme (Escherichia coli, UniProt P16691, P2A)
Method: The apparent Km of PhnO for the substrate acetyl-CoA was determined in similar experiments. After several attempts to obtain end point kinetics, it was determined that the turnover number was too low to be reliable at AMPA concentrations of about 30 mM and enzyme amounts of about 1-10 ng. An alternative approach was tried using tritium labeled acetyl-CoA. The specific activity of the label was about 40× higher than with [^14C], providing a gain in sensitivity that allowed for the determination of the apparent Km of PhnO for Acetyl-CoA. The [^3H]-acetyl-CoA (Amersham, Inc.) specific activity was 360 mCi/mg or 250 μCi/ml. […] This was accomplished by adjusting the concentration of KH2PO4 buffer (pH 5.5) to 40 mM with a flow rate of 1 ml per minute over an AX100 weak anion exchange column. Each sample was reacted with PhnO and 30 mM AMPA for five minutes at 37° C. and quenched with 100 mM NaOAc pH 4.4 in ethanol, then analyzed by HPLC. [^3H]-acetyl-CoA substrate ranged from 25 micromolar to 1.3 mM in each reaction along with about 5 ng PhnO, 50 mM Tris pH 7.5, 1 mM MnCl2, 1 mM MgCl2, and 30 mM AMPA. Samples were analyzed by HPLC to determine the amounts of N-[^3H]-acetyl-AMPA produced, and [^3H]-acetyl-CoA remaining.

Wheat immature embryos = test: Wheat embryo germination assay; assay type: in vivo; conditions: for Germinating root length / Germinating shoot length: ten days
Method: Wheat immature embryos were exposed to different concentrations of AMPA and N-acetyl-AMPA in a wheat embryo germination assay. MMSO base media was prepared containing 40 grams per liter maltose, 2 grams per liter GELRITE™, MS salts, and vitamins. Salts, vitamins, and maltose were dissolved in 3500 ml water and the pH was adjusted to 5.8. 500 ml was dispensed into a separate bottle along with 1 gram of GELRITE™ and autoclaved for 17 minutes. After the medium had cooled to about 45° C., AMPA or N-acetyl-AMPA was added to a defined concentration. The mixture was poured into six square Sundae cups under sterile conditions and allowed to solidify.
Immature wheat embryos were isolated from twenty day old seedlings (after anther formation) and inoculated into each MMSO media. Each Sundae cup contained nine immature embryo's. Three separate plates were used for each concentration of AMPA (0, 0.1, 0.15, 0.2, 0.25, 0.3, and 1.0 mM) or N-acetyl-AMPA (0, 0.1, 0.3, 1.0, and 3.0 mM). Sundae cups were incubated for ten days and the length of roots and shoots were determined and compared.

Tobacco callus = Tobacco callus growth on plates with AMPA or N-acetyl AMPA; assay type: cell-based, Nicotiana tabacum cv. "Samsun"; conditions: plates with 0.1 mM or 0.4 mM, up to three weeks
Method: Tobacco callus was generated from leaf pieces of wild type Nicotiana tabacum cv. “Samsun” tobacco on MS104 plates (MS salts 4.3 g/l, sucrose 30 g/l, B5 vitamins 500X 2 ml/l, NAA 0.1 mg/l, and Bacto Agar […]). Callus tissue was applied to plates with or without AMPA and with or without N-acetyl AMPA. Plates contained AMPA or N-acetyl AMPA at concentrations of 0.1 mM or 0.4 mM. Plates were incubated for up to three weeks and monitored periodically.

[1] = test system: AMPA acyltransferase activity; test: AMPA acyltransferase HPLC assay of bacterial lysates; assay type: biochemical; conditions: lysates of induced E. coli JM101 transformants
[2] = any concentration tested (0.1-3.0 mM)

Molecule: CC(=O)SCCNC(=O)CCNC(=O)[C@H](O)C(C)(C)COP(=O)(O)OP(=O)(O)OC[C@H]1O[C@@H](n2cnc3c(N)ncnc32)[C@H](O)[C@@H]1OP(=O)(O)O [Acetyl-CoA]
- [^14C]-AMPA % Conversion (purified PhnO protein; acyl donor 0.1 mM): 79.2%
- % Activity (purified PhnO protein; acyl donor 0.1 mM): 79.2%
- [^14C]-AMPA % Conversion (purified PhnO protein; acyl donor 0.5 mM): 98.7%
- % Activity (purified PhnO protein; acyl donor 0.5 mM): 98.7%
- [^14C]-AMPA % Conversion (purified PhnO protein; acyl donor 1 mM): 100.00%
- % Activity (purified PhnO protein; acyl donor 1 mM): 100.00%
- Velocity (PhnO enzyme; [Acetyl-CoA] 25 micromolar, 30 mM AMPA): 34
- Velocity (PhnO enzyme; [Acetyl-CoA] 50 micromolar): 66
- Velocity (PhnO enzyme; [Acetyl-CoA] 75 micromolar): 94
- Velocity (PhnO enzyme; [Acetyl-CoA] 100 micromolar): 125
- Velocity (PhnO enzyme; [Acetyl-CoA] 125 micromolar): 150
- Velocity (PhnO enzyme; [Acetyl-CoA] 150 micromolar): 173
- Velocity (PhnO enzyme; [Acetyl-CoA] 175 micromolar): 193
- Velocity (PhnO enzyme; [Acetyl-CoA] 200 micromolar): 219
- Velocity (PhnO enzyme; [Acetyl-CoA] 225 micromolar): 240
- Velocity (PhnO enzyme; [Acetyl-CoA] 250 micromolar): 259
- Velocity (PhnO enzyme; [Acetyl-CoA] 375 micromolar): 339
- Velocity (PhnO enzyme; [Acetyl-CoA] 390 micromolar): 287
- Velocity (PhnO enzyme; [Acetyl-CoA] 520 micromolar): 331
- Velocity (PhnO enzyme; [Acetyl-CoA] 650 micromolar): 352
- Velocity (PhnO enzyme; [Acetyl-CoA] 780 micromolar): 372
- Velocity (PhnO enzyme; [Acetyl-CoA] 910 micromolar): 397
- Velocity (PhnO enzyme; [Acetyl-CoA] 1040 micromolar): 411
- Velocity (PhnO enzyme; [Acetyl-CoA] 1170 micromolar): 425
- Velocity (PhnO enzyme; [Acetyl-CoA] 1300 micromolar): 434
- apparent Vmax (PhnO enzyme; acetyl-CoA substrate, Lineweaver-Burk plot): about 824 U/mg protein
- Km (PhnO enzyme; read-out: apparent Km of PhnO for acetyl-CoA as a substrate, 30 mM AMPA, Lineweaver-Burk plot of Table 9 data): 375 to 390 µM

Molecule: N-acetyl-amino-methyl-phosphonate [N-acetyl AMPA]
- Germinating root length (Wheat immature embryos; 0.10 mM): 5.9 ± 1.4 cm
- Germinating shoot length (Wheat immature embryos; 0.10 mM): 12.0 ± 2.4 cm
- Germinating root length (Wheat immature embryos; 0.30 mM): 5.2 ± 1.2 cm
- Germinating shoot length (Wheat immature embryos; 0.30 mM): 11.7 ± 3.5 cm
- Germinating root length (Wheat immature embryos; 1.00 mM): 5.4 ± 1.5 cm
- Germinating shoot length (Wheat immature embryos; 1.00 mM): 12.2 ± 3.2 cm
- Germinating root length (Wheat immature embryos; 3.00 mM): 5.9 ± 1.6 cm
- Germinating shoot length (Wheat immature embryos; 3.00 mM): 11.2 ± 2.6 cm
- inhibition of root elongation (Wheat immature embryos; [2]): only mildly inhibitory
- inhibition of shoots (Wheat immature embryos; [2]): not inhibitory
- concentration with no significant effects to immature embryo germination (Wheat immature embryos; in vivo): less than 3.0 mM
- growth of tobacco callus tissue (Tobacco callus): not inhibited

B1: CTP-PhnO peptide: chloroplast transit peptide fused to PhnO (SEQ ID NO:12) (protein)
chain: MASSMLSSATMVASPAQATMVAPFNGLKSSAAFPATRKANNDITSITSNGGRVNCMQVWPPIGKKKFETLSYLPDLTDSGGRVNCMQAMAACELRPATQYDTDAVYALICELKQAEFDHHAFRVGFNANLRDPNMRYHLALLDGEVVGMIGLHLQFHLHHVNWIGEIQELVVMPQARGLNVGSKLLAWAEEEARQAGAEMTELSTNVKRHDAHRFYLREGYEQSHFRFTKAL
- AMPA acyltransferase activity of cell lysates [1]: retain full enzymatic acyltransferase activity
